Test systems include CCRF-CEM leukemia; HCT-116 colon; OVCAR-4 ovarian; SF-295 CNS; SNB-19 CNS; TK-10 renal; U251 CNS; RPMI-8226 leukemia; SK-MEL-2 melanoma.
Holding throughout (assay): growth of human tumour cells (NCI), 48 h

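How tested: cells in 96-well plates exposed to compound for 48 hours at five concentrations. The concentration for 50% growth inhibition is given as GI50. At the TGI there is no net growth.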 Bounds are passed on as bounds.

For `CSc1n[n+]2c(s1)SCCC2`, the TGI in the experiment with CCRF-CEM leukemia, in the experiment with HCT-116 colon, in the experiment with OVCAR-4 ovarian, in the experiment with SF-295 CNS, with SNB-19 CNS and in the experiment with TK-10 renal was greater than 100 µM in each case. This compound also had a TGI with U251 CNS greater than 100 µM.

Regarding `FC(F)(F)C1(Br)C(c2ccccc2)=C1c1ccccc1`, the TGI was 30.2 µM in the experiment with CCRF-CEM leukemia; 20.2 µM in the experiment on HCT-116 colon; 54 µM in the experiment on OVCAR-4 ovarian; greater than 100 µM in the experiment on RPMI-8226 leukemia; 28.7 µM in the experiment on SF-295 CNS; 30 µM with SK-MEL-2 melanoma. In addition, the TGI with SNB-19 CNS turned out to be 59.2 µM; with TK-10 renal it was 48.6 µM; in the experiment with U251 CNS, 30.2 µM.

For `CCOC(=N)/C(=C1\OC(N)=C(c2ccc(Cl)cc2)C1=O)c1ccc(Cl)cc1`, the TGI is 65.6 µM in the experiment with CCRF-CEM leukemia; 30.7 µM in the experiment on HCT-116 colon; 31.9 µM with OVCAR-4 ovarian; 47.6 µM in the experiment on RPMI-8226 leukemia; 55.8 µM in the experiment with SF-295 CNS; 49.9 µM in the experiment with SNB-19 CNS. The TGI in the experiment with TK-10 renal came out at 51.9 µM; with U251 CNS, 30.8 µM.

Take `COC1=CC(=O)C2C(C1=O)C(c1ccccc1)[C@H]2C` (stereo partly specified): the TGI in the experiment with CCRF-CEM leukemia, in the experiment on RPMI-8226 leukemia, with SF-295 CNS, in the experiment with SK-MEL-2 melanoma, in the experiment with SNB-19 CNS and in the experiment on TK-10 renal was greater than 100 µM in each case. This compound also returned a TGI in the experiment with U251 CNS greater than 100 µM.

For the compound `C[N+](C)(C)CC(=O)N/N=C(\C(=O)NC1=C(Cl)C(=O)c2ccccc2C1=O)C(C#N)c1csc(-c2ccc([N+](=O)[O-])cc2)n1` (stereo unspecified), the TGI with CCRF-CEM leukemia, in the experiment with HCT-116 colon, in the experiment with OVCAR-4 ovarian, in the experiment with RPMI-8226 leukemia, in the experiment on SF-295 CNS and in the experiment with SK-MEL-2 melanoma was greater than 100 µM throughout. Also, the TGI in the experiment with SNB-19 CNS, in the experiment on TK-10 renal and with U251 CNS was greater than 100 µM in each case.

For `CCOc1cccc2ccc[n+](CC)c12`, the TGI in the experiment with CCRF-CEM leukemia, in the experiment on HCT-116 colon, in the experiment with OVCAR-4 ovarian, in the experiment on RPMI-8226 leukemia, in the experiment with SF-295 CNS and in the experiment on SNB-19 CNS was greater than 100 µM each time. In the experiment with TK-10 renal, this compound yielded a TGI greater than 100 µM.

Take `COC(=O)C1[C@H](c2cc(OC)c(OC)c(OC)c2)OC(=O)C1(C(=O)OC)C(=O)c1ccc2c(c1)OCO2` (stereo partly specified): the TGI in the experiment with CCRF-CEM leukemia, with HCT-116 colon, in the experiment on OVCAR-4 ovarian, with RPMI-8226 leukemia, in the experiment on SF-295 CNS and in the experiment on SNB-19 CNS was greater than 100 µM in each case. Moreover, the TGI in the experiment on TK-10 renal and in the experiment on U251 CNS was greater than 100 µM throughout.

Regarding `N#C/C(=C1\SC(N=Nc2ccccc2)C(=O)N1c1ccccc1)c1nc2ccccc2[nH]1` (stereo unspecified), the TGI in the experiment with CCRF-CEM leukemia, in the experiment on HCT-116 colon, in the experiment with OVCAR-4 ovarian, in the experiment with SF-295 CNS, in the experiment on SK-MEL-2 melanoma and in the experiment on SNB-19 CNS was greater than 100 µM throughout. Besides, the TGI with TK-10 renal and in the experiment with U251 CNS was greater than 100 µM throughout.

Turning to `CC(C)(C)C(=O)OCC1CCC(n2cnc3c(=O)[nH]c(N)nc32)O1` (stereo unspecified), the TGI in the experiment on CCRF-CEM leukemia, in the experiment with HCT-116 colon, with OVCAR-4 ovarian, in the experiment with RPMI-8226 leukemia, in the experiment on SF-295 CNS and in the experiment with SK-MEL-2 melanoma was greater than 100 µM in each case. Further, the TGI with SNB-19 CNS, with TK-10 renal and with U251 CNS was greater than 100 µM in each case.

Consider `CCc1cccc(CC)c1NC(=O)C1=C(C)NC(C)=C(C(=O)Nc2c(CC)cccc2CC)C1c1ccc([N+](=O)[O-])cc1`, for which the TGI in the experiment with CCRF-CEM leukemia was 45.8 µM; in the experiment on HCT-116 colon it was 46.4 µM; in the experiment on OVCAR-4 ovarian, 33.8 µM; in the experiment on RPMI-8226 leukemia, 37.4 µM; in the experiment with SF-295 CNS, 38.6 µM; in the experiment on SK-MEL-2 melanoma, 65.3 µM. Further, the TGI is greater than 100 µM in the experiment on SNB-19 CNS, 82.5 µM with TK-10 renal and greater than 100 µM in the experiment with U251 CNS.

On to `O=C(Nc1cccc(O)c1)C(=O)C(C(=O)c1ccc(Cl)c(Cl)c1)C1OC(=O)c2ccccc21` (stereo unspecified), for which the TGI came to 55.5 µM in the experiment on CCRF-CEM leukemia; 48.2 µM in the experiment with HCT-116 colon; 36.7 µM with OVCAR-4 ovarian; 54.5 µM in the experiment on RPMI-8226 leukemia; 62.6 µM in the experiment on SF-295 CNS; 63.9 µM with SK-MEL-2 melanoma. Also, the TGI was determined as 37.8 µM in the experiment with SNB-19 CNS, 60.3 µM in the experiment with TK-10 renal and 21.3 µM with U251 CNS.

`CCc1cc(CCC(=O)Nc2c(C)cccc2C)[nH]n1`: the TGI in the experiment with CCRF-CEM leukemia, with HCT-116 colon, in the experiment on OVCAR-4 ovarian, in the experiment with RPMI-8226 leukemia, in the experiment on SF-295 CNS and in the experiment on SK-MEL-2 melanoma was greater than 100 µM each time. Also, the TGI in the experiment on SNB-19 CNS, in the experiment on TK-10 renal and in the experiment on U251 CNS was greater than 100 µM in each case.

Consider `CN(C)c1nc(=Nc2cccc(Cl)c2)ss1`, for which the TGI in the experiment on CCRF-CEM leukemia came to 22.1 µM; in the experiment with HCT-116 colon, 24.2 µM; in the experiment on OVCAR-4 ovarian, 29.8 µM; in the experiment on RPMI-8226 leukemia, 17.5 µM; with SF-295 CNS, 56.5 µM; in the experiment on SK-MEL-2 melanoma, 42.1 µM. Moreover, the TGI in the experiment with SNB-19 CNS is greater than 100 µM; in the experiment with TK-10 renal, greater than 100 µM; in the experiment on U251 CNS, 24.1 µM.

Regarding `Cn1c2ccc(Br)cc2c2c3c(c4c5ccccc5[nH]c4c21)C(=O)N(O)C3=O`, the GI50 in the experiment with CCRF-CEM leukemia is 0.0412 µM; in the experiment on HCT-116 colon, 0.112 µM; with OVCAR-4 ovarian, 0.244 µM; in the experiment with RPMI-8226 leukemia it was 0.151 µM; in the experiment on SF-295 CNS, 0.223 µM; in the experiment with SK-MEL-2 melanoma, 0.226 µM. Further, the GI50 is 0.0777 µM with SNB-19 CNS, 0.655 µM in the experiment with TK-10 renal and 0.0865 µM in the experiment on U251 CNS. For the same compound, the TGI is 0.956 µM with CCRF-CEM leukemia; 0.414 µM in the experiment on HCT-116 colon; 0.705 µM in the experiment on OVCAR-4 ovarian; 0.672 µM in the experiment with RPMI-8226 leukemia; 0.633 µM in the experiment with SF-295 CNS; 0.469 µM with SK-MEL-2 melanoma. Further, the TGI is 0.696 µM with SNB-19 CNS, 1.42 µM in the experiment on TK-10 renal and 0.266 µM with U251 CNS.

The values are drawn from PubChem BioAssay (NCI).
